Each structure is given as a SMILES string.

The test system of the assay is JAK1-dependent STAT6 phosphorylation downstream of IL-13 stimulation in TF-1 human erythroleukemia cells. Nature of the assay: cells. Conditions: TF-1, read-out: IL-13-pSTAT6 IC50.
One may read the IC50 as the concentration that gives 50% inhibition. For `CNCCNC(=O)c1ccc(Nc2nc3c(C4=CCN(C(=O)CCC(F)(F)F)CC4)cccn3n2)cc1` [Example 2-31, N-[2-(methylamino)ethyl]-4-[[8-[1-(4,4,4-trifluorobutanoyl)-3,6-dihydro-2H-pyridin-4-yl]-[1,2,4]triazolo[1,5-a]pyridin-2-yl]amino]benzamide], the IC50 worked out at 181 nM.

For `O=C(NCCN1CCNCC1)c1ccc(Nc2nc3c(C4=CCN(C(=O)CCC(F)(F)F)CC4)cccn3n2)cc1` [Example 2-32, N-(2-piperazin-1-ylethyl)-4-[[8-[1-(4,4,4-trifluorobutanoyl)-3,6-dihydro-2H-pyridin-4-yl]-[1,2,4]triazolo[1,5-a]pyridin-2-yl]amino]benzamide], the half-inhibitory concentration (IC50) is 536 nM.

On to `O=C(CCC(F)(F)F)N1CC=C(c2cccn3nc(Nc4ccc(C(=O)N5CCNCC5CO)cc4)nc23)CC1` (centres unmarked) [Example 2-33, 4,4,4-trifluoro-1-[4-[2-[4-[2-(hydroxymethyl)piperazine-1-carbonyl]anilino]-[1,2,4]triazolo[1,5-a]pyridin-8-yl]-3,6-dihydro-2H-pyridin-1-yl]butan-1-one], for which the IC50 worked out at 23.3 nM.

As for `O=C(CCC(F)(F)F)N1CC=C(c2cccn3nc(Nc4ccc(C(=O)N5CCCCC56CCCNC6)cc4)nc23)CC1` (centres unmarked) [Example 2-34, 1-[4-[2-[4-(1,8-diazaspiro[5.5]undecane-1-carbonyl)anilino]-[1,2,4]triazolo[1,5-a]pyridin-8-yl]-3,6-dihydro-2H-pyridin-1-yl]-4,4,4-trifluoro-butan-1-one], the IC50 worked out at 352 nM.

As for `O=C(CCC(F)(F)F)N1CC=C(c2cccn3nc(Nc4ccc(C(=O)N5CC6(CCNC6)C5)cc4)nc23)CC1` [Example 2-35, 1-[4-[2-[4-(2,7-diazaspiro[3.4]octane-2-carbonyl)anilino]-[1,2,4]triazolo[1,5-a]pyridin-8-yl]-3,6-dihydro-2H-pyridin-1-yl]-4,4,4-trifluoro-butan-1-one], the IC50 came out at 95 nM.

In the case of `O=C(CCC(F)(F)F)N1CC=C(c2cccn3nc(Nc4ccc(C(=O)N5CC6CNCC(C5)O6)cc4)nc23)CC1` [Example 2-37, 4,4,4-trifluoro-1-[4-[2-[4-(9-oxa-3,7-diazabicyclo[3.3.1]nonane-3-carbonyl)anilino]-[1,2,4]triazolo[1,5-a]pyridin-8-yl]-3,6-dihydro-2H-pyridin-1-yl]butan-1-one], the IC50 was determined as 85.4 nM.

As to `CCN1CCC(CN(C)C(=O)c2ccc(Nc3nc4c(C5=CCN(C(=O)CCC(F)(F)F)CC5)cccn4n3)cc2)C1` (centres unmarked) [Example 2-39, N-[(1-ethylpyrrolidin-3-yl)methyl]-N-methyl-4-[[8-[1-(4,4,4-trifluorobutanoyl)-3,6-dihydro-2H-pyridin-4-yl]-[1,2,4]triazolo[1,5-a]pyridin-2-yl]amino]benzamide], the IC50 was 34.7 nM.

Turning to `Cc1ccnc(CNC(=O)c2ccc(Nc3nc4c(C5=CCN(C(=O)CCC(F)(F)F)CC5)cccn4n3)cc2)c1` [Example 2-41, N-[(4-methyl-2-pyridyl)methyl]-4-[[8-[1-(4,4,4-trifluorobutanoyl)-3,6-dihydro-2H-pyridin-4-yl]-[1,2,4]triazolo[1,5-a]pyridin-2-yl]amino]benzamide], the concentration for half-maximal inhibition (IC50) turned out to be 5.2 nM.

Take `Cc1ncccc1CNC(=O)c1ccc(Nc2nc3c(C4=CCN(C(=O)CCC(F)(F)F)CC4)cccn3n2)cc1` [Example 2-42, N-[(2-methyl-3-pyridyl)methyl]-4-[[8-[1-(4,4,4-trifluorobutanoyl)-3,6-dihydro-2H-pyridin-4-yl]-[1,2,4]triazolo[1,5-a]pyridin-2-yl]amino]benzamide]: the half-inhibitory concentration (IC50) is 4.7 nM.

For the compound `CC(CC(=O)N1CC=C(c2cccn3nc(Nc4ccc(C(=O)N(C)C5CCN(C)CC5)cc4)nc23)CC1)C(F)(F)F` (centres unmarked) [Example 2-43, N-methyl-N-(1-methyl-4-piperidyl)-4-[[8-[1-(4,4,4-trifluoro-3-methyl-butanoyl)-3,6-dihydro-2H-pyridin-4-yl]-[1,2,4]triazolo[1,5-a]pyridin-2-yl]amino]benzamide], the IC50 came out at 27.8 nM.

For `O=C(CCC(F)(F)F)N1CC=C(c2cccn3nc(Nc4ccc(C(=O)N5CCC(N6CCOCC6)C5)cc4)nc23)CC1` (centres unmarked) [Example 2-45, 4,4,4-trifluoro-1-[4-[2-[4-(3-morpholinopyrrolidine-1-carbonyl)anilino]-[1,2,4]triazolo[1,5-a]pyridin-8-yl]-3,6-dihydro-2H-pyridin-1-yl]butan-1-one], the IC50 was 9 nM.

For `O=C(CCC(F)(F)F)N1CC=C(c2cccn3nc(Nc4ccc(C(=O)N5CCC(N6CCCC6)CC5)cc4)nc23)CC1` [Example 2-46, 4,4,4-trifluoro-1-[4-[2-[4-(4-pyrrolidin-1-ylpiperidine-1-carbonyl)anilino]-[1,2,4]triazolo[1,5-a]pyridin-8-yl]-3,6-dihydro-2H-pyridin-1-yl]butan-1-one], the half-inhibitory concentration (IC50) turned out to be 20.5 nM.

Consider `CC1CCCCN1CCCNC(=O)c1ccc(Nc2nc3c(C4=CCN(C(=O)CCC(F)(F)F)CC4)cccn3n2)cc1` (centres unmarked) [Example 2-47, N-[3-(2-methyl-1-piperidyl)propyl]-4-[[8-[1-(4,4,4-trifluorobutanoyl)-3,6-dihydro-2H-pyridin-4-yl]-[1,2,4]triazolo[1,5-a]pyridin-2-yl]amino]benzamide], for which the IC50 is 15.7 nM.

Regarding `CN1CCCC1CCNC(=O)c1ccc(Nc2nc3c(C4=CCN(C(=O)CCC(F)(F)F)CC4)cccn3n2)cc1` (centres unmarked) [Example 2-48, N-[2-(1-methylpyrrolidin-2-yl)ethyl]-4-[[8-[1-(4,4,4-trifluorobutanoyl)-3,6-dihydro-2H-pyridin-4-yl]-[1,2,4]triazolo[1,5-a]pyridin-2-yl]amino]benzamide], the IC50 is 33.5 nM.

Consider `Cc1ccc(C2CCCN(C(=O)c3ccc(Nc4nc5c(C6=CCN(C(=O)CCC(F)(F)F)CC6)cccn5n4)cc3)C2)nc1` (centres unmarked) [Example 2-50, 4,4,4-tri fluoro-1-[4-[2-[4-[3-(5-methyl-2-pyridyl)piperidine-1-carbonyl]anilino]-[1,2,4]triazolo[1,5-a]pyridin-8-yl]-3,6-dihydro-2H-pyridin-1-yl]butan-1-one], for which the IC50 worked out at 65.1 nM.

With `CN(C)c1ccc(C2CCCN(C(=O)c3ccc(Nc4nc5c(C6=CCN(C(=O)CCC(F)(F)F)CC6)cccn5n4)cc3)C2)nc1` (centres unmarked) [Example 2-51, 1-[4-[2-[4-[3-[5-(dimethylamino)-2-pyridyl]piperidine-1-carbonyl]anilino]-[1,2,4]triazolo[1,5-a]pyridin-8-yl]-3,6-dihydro-2H-pyridin-1-yl]-4,4,4-trifluoro-butan-1-one], the IC50 was found to be 70.2 nM.

As to `CN1CCC(N(C)C(=O)c2ccc(Nc3nc4c(C5=CCN(CC#N)CC5)cccn4n3)cc2)CC1` [Example 2-52, 4-[[8-[1-(cyanomethyl)-3,6-dihydro-2H-pyridin-4-yl]-[1,2,4]triazolo[1,5-a]pyridin-2-yl]amino]-N-methyl-N-(1-methyl-4-piperidyl)benzamide], the IC50 worked out at 60 nM.

For the compound `CN1CCC(N(C)C(=O)c2ccc(Nc3nc4c(C5=CCN(C(=O)CC(C)(C)C)CC5)cccn4n3)cc2)CC1` [Example 2-54, 4-[[8-[1-(3,3-dimethylbutanoyl)-3,6-dihydro-2H-pyridin-4-yl]-[1,2,4]triazolo[1,5-a]pyridin-2-yl]amino]-N-methyl-N-(1-methyl-4-piperidyl)benzamide], the IC50 turned out to be 16.3 nM.

Turning to `CCOC(=O)N1CC=C(c2cccn3nc(Nc4ccc(C(=O)N5CC(NC)C5)cc4)nc23)CC1` [Example 2-55, Ethyl 4-[2-[4-[3-(methylamino)azetidine-1-carbonyl]anilino]-[1,2,4]triazolo[1,5-a]pyridin-8-yl]-3,6-dihydro-2H-pyridine-1-carboxylate], the IC50 worked out at 10 nM.

For `CCOC(=O)N1CC=C(c2cccn3nc(Nc4ccc(C(=O)NC5CCN(C)CC5)cc4)nc23)CC1` [Example 2-60, ethyl 4-[2-[4-[(1-methyl-4-piperidyl)carbamoyl]anilino]-[1,2,4]triazolo[1,5-a]pyridin-8-yl]-3,6-dihydro-2H-pyridine-1-carboxylate], the half-inhibitory concentration (IC50) is 20.4 nM.

Turning to `CCOC(=O)N1CC=C(c2cccn3nc(Nc4ccc(C(=O)N5CCC(c6ccncc6)C5)cc4)nc23)CC1` (centres unmarked) [Example 2-62, ethyl 4-[2-[4-[3-(4-pyridyl)pyrrolidine-1-carbonyl]anilino]-[1,2,4]triazolo[1,5-a]pyridin-8-yl]-3,6-dihydro-2H-pyridine-1-carboxylate], the IC50 was found to be 30 nM.

Consider `CCOC(=O)N1CC=C(c2cccn3nc(Nc4ccc(C(=O)N5CCCC5c5ccc(C)cn5)cc4)nc23)CC1` (centres unmarked) [Example 2-67, ethyl 4-[2-[4-[2-(5-methyl-2-pyridyl)pyrrolidine-1-carbonyl]anilino]-[1,2,4]triazolo[1,5-a]pyridin-8-yl]-3,6-dihydro-2H-pyridine-1-carboxylate], for which the IC50 turned out to be 40.9 nM.

As for `CCOC(=O)N1CC=C(c2cccn3nc(Nc4ccc(C(=O)N5CC6(CCN(C)C6)C5)cc4)nc23)CC1` [Example 2-68, ethyl 4-[2-[4-(7-methyl-2,7-diazaspiro[3.4]octane-2-carbonyl)anilino]-[1,2,4]triazolo[1,5-a]pyridin-8-yl]-3,6-dihydro-2H-pyridine-1-carboxylate], the IC50 stood at 11.9 nM.

Turning to `CCOC(=O)N1CC=C(c2cccn3nc(Nc4ccc(C(=O)N5Cc6cccnc6C5)cc4)nc23)CC1` [Example 2-70, ethyl 4-[2-[4-(5,7-dihydropyrrolo[3,4-b]pyridine-6-carbonyl)anilino]-[1,2,4]triazolo[1,5-a]pyridin-8-yl]-3,6-dihydro-2H-pyridine-1-carboxylate], the half-inhibitory concentration (IC50) turned out to be 29.8 nM.

Regarding `CCOC(=O)N1CC=C(c2cccn3nc(Nc4ccc(C(=O)N5CC(N)C5)cc4)nc23)CC1` [Example 2-74, ethyl 4-[2-[4-(3-aminoazetidine-1-carbonyl)anilino]-[1,2,4]triazolo[1,5-a]pyridin-8-yl]-3,6-dihydro-2H-pyridine-1-carboxylate], the concentration for half-maximal inhibition (IC50) amounted to 18.9 nM.

In the case of `CCOC(=O)N1CC=C(c2cccn3nc(Nc4ccc(C(=O)N5CC6(CNC6)C5)cc4)nc23)CC1` [Example 2-77, ethyl 4-[2-[4-(2,6-diazaspiro[3.3]heptane-2-carbonyl)anilino]-[1,2,4]triazolo[1,5-a]pyridin-8-yl]-3,6-dihydro-2H-pyridine-1-carboxylate], the concentration for half-maximal inhibition (IC50) turned out to be 134 nM.

The record behind these values is patent publication US9873709B2 (priority 2013, dated 2018).
